{"source": "patent US20240147994A1", "about": "“ENHANCED YEASTICIDAL EFFICACY OF LACTIC ACID BASED ANTIMICROBIAL HANDWASH” (ECOLAB USA INC., priority 2022, published 2024)", "test_system": "Modified Vaccinia Virus, strain Ankara (MVA)", "type": "cell-based", "settings": "reference inactivation (LVP-Method)", "note": "“And” between values parts separate entries of the source, which are not always exact repeats. Equal entries are not always repeated.", "data": [{"smiles": "C=O", "note": "[0.7% (w/v) formaldehyde solution, formaldehyde]", "values": [{"measurement": "Reduction factor [lg] ± 95.0% confidence interval, 5 min", "value": "1.70 lg and 1.87 lg and 1.53 lg"}, {"measurement": "Reduction factor [lg] ± 95.0% confidence interval, 15 min", "value": "3.14 lg and 2.96 lg and 2.73 lg"}, {"measurement": "lg-TCID50/ml after 5 min", "value": "4.93 lg-TCID50/ml and 4.88 lg-TCID50/ml and 4.85 lg-TCID50/ml"}, {"measurement": "lg-TCID50/ml after 15 min", "value": "3.49 lg-TCID50/ml and 3.79 lg-TCID50/ml and 3.65 lg-TCID50/ml"}]}]}
